In ChEMBL document CHEMBL4152219, “Discovery of 1,8-acridinedione derivatives as novel GCN5 inhibitors via high throughput screening” (Eur J Med Chem, 2018):
One block for each compound: values may come before it. Activity calls are given as the source filed them. No cut-off for these calls is given here.

Experiments:
[1] = molecular target: T1, Histone acetyltransferase GCN5 (Saccharomyces cerevisiae S288c, UniProt Q03330); experiment: Inhibition of yeast GCN5 (99 to 262 residues) expressed in Escherichia coli BL21 (DE3) preincubated for 15 mins followed by biotin tagged H3 peptide ( 1 to 23 residues) and [3H]-Ac-CoA addition and measured after 60 mins by radioactive acetylation assay
[2] = molecular target: Histone acetyltransferase GCN5 (Saccharomyces cerevisiae S288c) (UniProt Q03330); experiment: Inhibition of yeast GCN5 (99 to 262 residues) expressed in Escherichia coli BL21 (DE3) at 100 uM using biotin tagged H3 peptide ( 1 to 23 residues) as substrate preincubated for 30 mins followed by AC-CoA and substrate addition and measured after 30 mins by AlphaScreen assay
MV4-11 [3] = experiment: Antiproliferative activity against human MV4-11 cells after 3 days by celltiter-glo luminescent assay; format: functional, cell-based; details: for IC50: MV4-11, 72 h
MV4-11 [4] = experiment: Induction of apoptosis in human MV4-11 cells after 72 hrs by Annexin-V FITC/propidium iodide staining based flow cytometric analysis; format: functional, cell-based
[5] = molecular target: Histone acetyltransferase p300 (Homo sapiens) (UniProt Q09472); experiment: Inhibition of p300 (unknown origin) at 33 uM relative to control
MV4-11 [6] = experiment: Induction of apoptosis in human MV4-11 cells assessed as viable cells at 40 uM after 72 hrs by Annexin-V FITC/propidium iodide staining based flow cytometric analysis (reference value: 95.2%); format: functional; details: MV4-11, 72 h, read-out: Activity
HUVEC = experiment: Antiproliferative activity against HUVEC after 3 days by celltiter-glo luminescent assay; format: cell-based; details: human, 72 h
MV4-11 [7] = experiment: Cell cycle arrest in human MV4-11 cells accumulation at G2 phase at 12.5 uM after 24 hrs bby propidium iodide staining-based flow cytometric analysis (reference value: 4.68%); format: functional
[8] = molecular target: T1, Histone acetyltransferase GCN5; experiment: Binding affinity to yeast GCN5 (99 to 262 residues) expressed in Escherichia coli BL21 (DE3) by SPR analysis
MV4-11 [9] = experiment: Cell cycle arrest in human MV4-11 cells accumulation at G2 phase at 25 uM after 24 hrs bby propidium iodide staining-based flow cytometric analysis (reference value: 4.68%); format: functional
MV4-11 [10] = experiment: Induction of apoptosis in human MV4-11 cells assessed as necrotic cells at 40 uM after 72 hrs by Annexin-V FITC/propidium iodide staining based flow cytometric analysis (reference value: 0.66%); format: functional
[11] = molecular target: T2, Histone-lysine N-methyltransferase EHMT2 (Homo sapiens) (UniProt Q96KQ7); experiment: Inhibition of G9a (unknown origin) at 33 uM relative to control
T2 sequence (whole entry): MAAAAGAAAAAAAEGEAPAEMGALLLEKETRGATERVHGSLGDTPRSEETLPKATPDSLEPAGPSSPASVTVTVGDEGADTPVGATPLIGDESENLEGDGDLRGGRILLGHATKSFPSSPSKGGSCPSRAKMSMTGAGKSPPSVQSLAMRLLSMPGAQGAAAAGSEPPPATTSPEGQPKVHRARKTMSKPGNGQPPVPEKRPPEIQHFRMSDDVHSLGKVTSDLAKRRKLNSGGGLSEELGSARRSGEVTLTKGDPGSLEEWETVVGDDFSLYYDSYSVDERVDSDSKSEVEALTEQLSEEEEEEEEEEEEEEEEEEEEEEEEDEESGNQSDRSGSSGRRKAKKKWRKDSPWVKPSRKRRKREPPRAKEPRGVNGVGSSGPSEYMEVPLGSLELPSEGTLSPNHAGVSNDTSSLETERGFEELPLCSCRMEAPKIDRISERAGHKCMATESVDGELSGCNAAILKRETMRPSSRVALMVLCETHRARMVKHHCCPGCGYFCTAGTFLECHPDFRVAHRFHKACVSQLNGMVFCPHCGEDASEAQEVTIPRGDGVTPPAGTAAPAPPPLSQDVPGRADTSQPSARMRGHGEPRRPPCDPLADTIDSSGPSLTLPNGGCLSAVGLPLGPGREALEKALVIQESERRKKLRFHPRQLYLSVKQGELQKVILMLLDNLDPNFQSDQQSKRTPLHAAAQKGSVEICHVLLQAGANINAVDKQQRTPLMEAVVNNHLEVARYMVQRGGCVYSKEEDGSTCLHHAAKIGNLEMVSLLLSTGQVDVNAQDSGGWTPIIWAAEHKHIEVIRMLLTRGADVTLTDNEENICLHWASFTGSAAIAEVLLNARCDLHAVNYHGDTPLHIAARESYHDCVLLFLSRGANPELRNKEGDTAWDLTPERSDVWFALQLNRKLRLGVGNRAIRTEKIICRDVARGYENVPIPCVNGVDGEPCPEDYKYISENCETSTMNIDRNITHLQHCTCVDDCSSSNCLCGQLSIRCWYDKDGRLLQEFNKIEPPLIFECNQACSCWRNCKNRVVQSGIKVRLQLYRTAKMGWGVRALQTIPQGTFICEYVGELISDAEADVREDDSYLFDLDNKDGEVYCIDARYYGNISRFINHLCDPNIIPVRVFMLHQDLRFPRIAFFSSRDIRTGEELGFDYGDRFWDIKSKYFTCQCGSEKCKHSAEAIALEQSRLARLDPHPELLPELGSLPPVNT

MV4-11 [12] = experiment: Induction of apoptosis in human MV4-11 cells assessed as late apototic cells at 40 uM after 72 hrs by Annexin-V FITC/propidium iodide staining based flow cytometric analysis (reference value: 3.41%); format: functional
MV4-11 [13] = experiment: Induction of apoptosis in human MV4-11 cells assessed as necrotic cells at 20 uM after 72 hrs by Annexin-V FITC/propidium iodide staining based flow cytometric analysis (reference value: 0.66%); format: functional
MV4-11 [14] = experiment: Cell cycle arrest in human MV4-11 cells accumulation at G1 phase at 12.5 uM after 24 hrs bby propidium iodide staining-based flow cytometric analysis (reference value: 52.56%); format: functional
MV4-11 [15] = experiment: Induction of apoptosis in human MV4-11 cells assessed as viable cells at 20 uM after 72 hrs by Annexin-V FITC/propidium iodide staining based flow cytometric analysis (reference value: 95.2%); format: functional; details: MV4-11, 72 h, read-out: Activity
[16] = molecular target: Histone acetyltransferase KAT2A (Homo sapiens) (UniProt Q92830); experiment: Inhibition of GCN5 in human MV4-11 cells assessed as reduction of acetylated H3K14 level up to 100 uM after 24 hrs by Western blot analysis; format: cell-based
MV4-11 [17] = experiment: Cell cycle arrest in human MV4-11 cells accumulation at G0/G1 phase after 24 hrs bby propidium iodide staining-based flow cytometric analysis; format: functional
MV4-11 [18] = experiment: Induction of apoptosis in human MV4-11 cells assessed as late apototic cells at 20 uM after 72 hrs by Annexin-V FITC/propidium iodide staining based flow cytometric analysis (reference value: 3.41%); format: functional
MV4-11 [19] = experiment: Cell cycle arrest in human MV4-11 cells accumulation at S phase at 25 uM after 24 hrs bby propidium iodide staining-based flow cytometric analysis (reference value: 42.77%); format: functional
[20] = Antiproliferative activity against human […] cells after 3 days by celltiter-glo luminescent assay; format: cell-based; details: 72 h
MV4-11 [21] = experiment: Induction of apoptosis in human MV4-11 cells assessed as early apototic cells at 40 uM after 72 hrs by Annexin-V FITC/propidium iodide staining based flow cytometric analysis (reference value: 0.75%); format: functional
[22] = molecular target: Histone-lysine N-methyltransferase EZH2 (Homo sapiens) (UniProt Q15910); experiment: Inhibition of EZH2 (unknown origin) at 33 uM relative to control
MV4-11 [23] = experiment: Cell cycle arrest in human MV4-11 cells accumulation at S phase at 12.5 uM after 24 hrs bby propidium iodide staining-based flow cytometric analysis (reference value: 42.77%); format: functional
MV4-11 [24] = experiment: Cell cycle arrest in human MV4-11 cells accumulation at G1 phase at 25 uM after 24 hrs bby propidium iodide staining-based flow cytometric analysis (reference value: 52.56%); format: functional
MV4-11 [25] = experiment: Induction of apoptosis in human MV4-11 cells assessed as early apototic cells at 20 uM after 72 hrs by Annexin-V FITC/propidium iodide staining based flow cytometric analysis (reference value: 0.75%); format: functional
[26] = molecular target: Histone acetyltransferase GCN5 (Saccharomyces cerevisiae S288c) (UniProt Q03330); experiment: Inhibition of yeast GCN5 (99 to 262 residues) expressed in Escherichia coli BL21 (DE3) at 33 uM preincubated for 15 mins followed by biotin tagged H3 peptide ( 1 to 23 residues) and [3H]-Ac-CoA addition and measured after 60 mins by radioactive acetylation assay
[27] = molecular target: Histone acetyltransferase GCN5 (Saccharomyces cerevisiae S288c) (UniProt Q03330); experiment: Binding affinity to yeast GCN5 (99 to 262 residues) expressed in Escherichia coli BL21 (DE3) at 200 uM by STD NMR spectroscopy
[28] = molecular target: Histone acetyltransferase GCN5 (Saccharomyces cerevisiae S288c) (UniProt Q03330); experiment: Binding affinity to yeast GCN5 (99 to 262 residues) expressed in Escherichia coli BL21 (DE3) at 200 uM by CPMG NMR spectroscopy

T1 sequence (Q03330 whole entry, the tested form may be a part): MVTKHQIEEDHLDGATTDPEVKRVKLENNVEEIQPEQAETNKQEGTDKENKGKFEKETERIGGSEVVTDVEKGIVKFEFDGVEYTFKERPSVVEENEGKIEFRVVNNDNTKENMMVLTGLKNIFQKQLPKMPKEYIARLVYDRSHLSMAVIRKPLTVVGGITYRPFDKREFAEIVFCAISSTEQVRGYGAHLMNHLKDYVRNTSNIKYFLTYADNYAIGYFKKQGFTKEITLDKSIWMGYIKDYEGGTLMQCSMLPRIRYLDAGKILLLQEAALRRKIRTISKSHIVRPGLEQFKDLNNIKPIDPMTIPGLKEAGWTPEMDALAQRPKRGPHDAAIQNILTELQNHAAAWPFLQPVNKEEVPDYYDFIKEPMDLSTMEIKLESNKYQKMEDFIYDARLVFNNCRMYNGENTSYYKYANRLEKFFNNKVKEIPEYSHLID
Chain of Histone acetyltransferase GCN5 (Saccharomyces cerevisiae S288c) (Q03330 whole entry, the tested form may be a part): as above
Chain of Histone acetyltransferase KAT2A (Homo sapiens) (Q92830 2-837 limits assumed): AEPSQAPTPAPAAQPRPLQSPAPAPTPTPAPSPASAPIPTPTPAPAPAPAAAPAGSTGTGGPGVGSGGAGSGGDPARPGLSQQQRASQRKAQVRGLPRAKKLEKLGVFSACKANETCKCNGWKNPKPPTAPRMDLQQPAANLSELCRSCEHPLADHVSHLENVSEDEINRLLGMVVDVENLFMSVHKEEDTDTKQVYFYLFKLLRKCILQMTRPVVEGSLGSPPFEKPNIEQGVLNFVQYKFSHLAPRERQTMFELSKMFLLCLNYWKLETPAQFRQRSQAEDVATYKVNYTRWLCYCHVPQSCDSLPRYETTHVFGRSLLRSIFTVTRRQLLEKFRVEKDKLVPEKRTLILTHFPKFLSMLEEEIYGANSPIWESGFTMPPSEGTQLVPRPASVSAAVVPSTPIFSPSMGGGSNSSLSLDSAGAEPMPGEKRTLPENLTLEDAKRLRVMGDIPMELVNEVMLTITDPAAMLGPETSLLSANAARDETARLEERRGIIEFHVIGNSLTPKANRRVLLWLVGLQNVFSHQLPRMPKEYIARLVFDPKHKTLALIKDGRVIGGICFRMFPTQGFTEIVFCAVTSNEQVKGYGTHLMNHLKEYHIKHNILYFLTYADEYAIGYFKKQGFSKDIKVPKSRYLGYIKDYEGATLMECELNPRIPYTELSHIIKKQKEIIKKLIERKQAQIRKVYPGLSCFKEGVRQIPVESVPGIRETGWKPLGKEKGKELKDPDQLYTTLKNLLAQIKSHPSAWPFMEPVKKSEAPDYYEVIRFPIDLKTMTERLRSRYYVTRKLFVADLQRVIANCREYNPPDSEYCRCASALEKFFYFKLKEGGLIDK
Chain of Histone-lysine N-methyltransferase EZH2 (Homo sapiens) (Q15910 whole entry, looked up): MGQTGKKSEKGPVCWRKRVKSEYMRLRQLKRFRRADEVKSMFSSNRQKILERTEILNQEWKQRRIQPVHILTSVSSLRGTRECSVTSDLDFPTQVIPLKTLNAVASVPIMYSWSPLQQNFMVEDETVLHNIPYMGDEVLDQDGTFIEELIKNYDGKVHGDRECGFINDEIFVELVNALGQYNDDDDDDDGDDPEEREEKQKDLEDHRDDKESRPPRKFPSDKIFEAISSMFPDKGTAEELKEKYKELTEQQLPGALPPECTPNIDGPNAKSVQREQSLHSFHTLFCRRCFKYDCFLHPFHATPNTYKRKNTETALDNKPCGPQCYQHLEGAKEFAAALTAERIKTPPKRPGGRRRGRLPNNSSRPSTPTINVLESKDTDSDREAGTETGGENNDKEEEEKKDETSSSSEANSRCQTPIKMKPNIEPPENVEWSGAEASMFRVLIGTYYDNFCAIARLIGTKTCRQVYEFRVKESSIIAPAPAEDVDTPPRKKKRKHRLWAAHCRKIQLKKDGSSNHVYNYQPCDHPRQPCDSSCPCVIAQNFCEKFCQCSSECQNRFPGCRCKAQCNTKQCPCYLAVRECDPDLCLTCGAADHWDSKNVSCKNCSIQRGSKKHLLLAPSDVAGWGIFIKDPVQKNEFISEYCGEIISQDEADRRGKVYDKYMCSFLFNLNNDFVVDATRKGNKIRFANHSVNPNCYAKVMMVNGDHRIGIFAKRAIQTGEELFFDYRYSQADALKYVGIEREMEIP
Chain of Histone acetyltransferase p300 (Homo sapiens) (Q09472 whole entry): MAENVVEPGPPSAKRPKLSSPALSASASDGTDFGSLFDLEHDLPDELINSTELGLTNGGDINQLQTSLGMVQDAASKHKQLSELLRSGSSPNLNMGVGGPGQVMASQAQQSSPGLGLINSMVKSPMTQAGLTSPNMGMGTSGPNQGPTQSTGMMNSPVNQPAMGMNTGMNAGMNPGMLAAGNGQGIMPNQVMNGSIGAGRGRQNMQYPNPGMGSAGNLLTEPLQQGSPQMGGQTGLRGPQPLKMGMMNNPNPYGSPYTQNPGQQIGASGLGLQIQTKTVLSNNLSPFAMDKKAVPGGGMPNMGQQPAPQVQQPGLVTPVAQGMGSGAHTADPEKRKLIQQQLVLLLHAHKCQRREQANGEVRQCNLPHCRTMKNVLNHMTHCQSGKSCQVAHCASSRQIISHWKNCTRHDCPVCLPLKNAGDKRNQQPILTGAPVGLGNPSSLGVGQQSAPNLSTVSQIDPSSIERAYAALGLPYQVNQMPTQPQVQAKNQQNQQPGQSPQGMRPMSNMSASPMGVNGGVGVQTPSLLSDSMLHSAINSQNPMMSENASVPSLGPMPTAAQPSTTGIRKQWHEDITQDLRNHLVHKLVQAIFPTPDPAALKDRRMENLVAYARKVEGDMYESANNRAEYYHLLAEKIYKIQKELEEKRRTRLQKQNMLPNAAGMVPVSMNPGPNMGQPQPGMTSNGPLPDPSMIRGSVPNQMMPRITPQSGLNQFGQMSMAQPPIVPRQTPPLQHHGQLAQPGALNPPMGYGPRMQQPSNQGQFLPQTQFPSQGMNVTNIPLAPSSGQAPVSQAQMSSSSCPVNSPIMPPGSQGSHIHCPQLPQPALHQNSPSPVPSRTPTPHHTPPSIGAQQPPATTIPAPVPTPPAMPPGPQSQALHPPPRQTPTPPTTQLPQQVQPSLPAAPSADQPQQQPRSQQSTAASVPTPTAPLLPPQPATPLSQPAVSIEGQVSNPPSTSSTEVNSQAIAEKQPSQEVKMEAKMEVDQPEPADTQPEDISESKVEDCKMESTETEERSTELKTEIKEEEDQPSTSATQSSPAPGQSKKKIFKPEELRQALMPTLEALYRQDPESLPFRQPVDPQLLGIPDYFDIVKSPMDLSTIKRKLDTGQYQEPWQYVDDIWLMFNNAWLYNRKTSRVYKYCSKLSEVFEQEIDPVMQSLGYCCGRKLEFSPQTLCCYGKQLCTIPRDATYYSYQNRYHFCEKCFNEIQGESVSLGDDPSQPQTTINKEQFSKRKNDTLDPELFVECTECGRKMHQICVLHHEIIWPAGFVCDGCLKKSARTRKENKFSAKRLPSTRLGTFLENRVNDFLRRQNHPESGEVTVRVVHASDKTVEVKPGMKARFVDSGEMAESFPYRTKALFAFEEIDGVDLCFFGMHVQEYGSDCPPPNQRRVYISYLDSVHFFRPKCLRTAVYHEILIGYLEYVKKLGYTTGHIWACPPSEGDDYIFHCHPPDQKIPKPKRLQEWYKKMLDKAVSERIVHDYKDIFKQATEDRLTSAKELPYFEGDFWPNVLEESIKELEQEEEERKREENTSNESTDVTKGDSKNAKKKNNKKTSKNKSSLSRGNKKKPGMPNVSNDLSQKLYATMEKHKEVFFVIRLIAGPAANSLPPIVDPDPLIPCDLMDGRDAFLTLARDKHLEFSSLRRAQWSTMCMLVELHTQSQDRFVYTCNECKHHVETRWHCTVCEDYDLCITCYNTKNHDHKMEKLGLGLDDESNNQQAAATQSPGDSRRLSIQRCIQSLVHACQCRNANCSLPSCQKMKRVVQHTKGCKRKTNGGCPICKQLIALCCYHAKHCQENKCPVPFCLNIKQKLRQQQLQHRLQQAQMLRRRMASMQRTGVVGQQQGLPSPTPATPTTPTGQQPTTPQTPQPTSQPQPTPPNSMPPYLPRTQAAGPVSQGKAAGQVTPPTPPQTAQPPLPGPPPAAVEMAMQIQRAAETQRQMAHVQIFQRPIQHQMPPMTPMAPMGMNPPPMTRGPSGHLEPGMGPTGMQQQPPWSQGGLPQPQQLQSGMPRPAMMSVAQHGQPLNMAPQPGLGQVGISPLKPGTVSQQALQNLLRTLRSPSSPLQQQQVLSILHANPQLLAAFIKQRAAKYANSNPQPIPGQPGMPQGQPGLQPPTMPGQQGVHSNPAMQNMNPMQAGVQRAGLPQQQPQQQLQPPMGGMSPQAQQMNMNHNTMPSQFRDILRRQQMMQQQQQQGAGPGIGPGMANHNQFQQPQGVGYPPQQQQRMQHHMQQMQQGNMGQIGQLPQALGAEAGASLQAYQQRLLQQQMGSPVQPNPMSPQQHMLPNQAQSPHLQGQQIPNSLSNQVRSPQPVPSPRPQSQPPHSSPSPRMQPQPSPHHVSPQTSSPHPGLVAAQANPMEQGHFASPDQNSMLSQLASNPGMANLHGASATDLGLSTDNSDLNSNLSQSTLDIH

IC50 [1]: 31 µM
SMILES: COC(=O)C1=C(C)NC2=C(C(=O)CC(C)(C)C2)C1c1ccc(OCc2ccc(C(=O)O)cc2)cc1 (stereo not drawn)

inhibition [2]: > 70% | IC50 [1]: 20 µM
SMILES: N#Cc1c(-c2ccc(F)cc2)cc(-c2cccs2)nc1SCC(=O)NCC(=O)O

IC50 (MV4-11 [3]): 24.7 µM | inhibition [5]: 21% | Kd [8]: 4.2 µM | inhibition [11]: -8% | inhibition [16]: Active | IC50 [1]: 6.8 µM | inhibition [22]: 7%
SMILES: CC1(C)CC(=O)C2=C(C1)NC1=C(C(=O)CC(C)(C)C1)C2c1cc(Br)c(OCc2ccc(C(=O)O)cc2)c(Br)c1
Activity (MV4-11 [3]): Dose-dependent effect | Activity (MV4-11 [4]): Dose-dependent effect | viability at 40 µM (MV4-11 [6]): 42.4% | Activity (HUVEC): Non-Toxic | Activity (MV4-11 [7]): 1.35% | Activity (MV4-11 [9]): 1.3% | Activity (MV4-11 [10]): 2.32% | Activity (MV4-11 [12]): 54.6% | Activity (MV4-11 [13]): 0.41% | Activity (MV4-11 [14]): 72.36% | viability at 20 µM (MV4-11 [15]): 82.5% | Activity (MV4-11 [17]): Dose-dependent effect | Activity (MV4-11 [18]): 16.2% | Activity (MV4-11 [19]): 13.99% | Activity [20]: Non-Toxic | Activity (MV4-11 [21]): 0.7% | Activity (MV4-11 [23]): 26.29% | Activity (MV4-11 [24]): 84.7% | Activity (MV4-11 [25]): 0.81%

IC50 [1]: 34 µM
SMILES: O=C1CCCC2=C1C(c1ccc(OCc3ccc(C(=O)O)cc3)cc1)c1ccc3ccccc3c1N2 (stereo not drawn)

inhibition [26]: 15%
SMILES: CC1(C)CC(=O)C2=C(C1)NC1=C(C(=O)CC(C)(C)C1)C2c1ccc(OCc2ccccc2)c(Br)c1

inhibition [26]: 24%
SMILES: COc1cc(C2C3=C(CCCC3=O)NC3=C2C(=O)CCC3)ccc1OCc1ccc(C(=O)O)cc1

inhibition [26]: 18%
SMILES: CC1(C)CC(=O)C2=C(C1)NC1=C(C(=O)CC(C)(C)C1)C2c1ccc(O)c(Br)c1

inhibition [2]: > 70%
SMILES: CCC(=O)Nc1cccc(NC(=O)C(C)Oc2cccc(C)c2)c1 (stereo not drawn)

IC50 [1]: 81 µM
SMILES: O=C(O)c1ccc(COc2ccccc2Br)cc1

Kd [8]: 26.2 µM | Activity [27]: Active | inhibition [2]: > 70% | Activity [28]: Active | IC50 [1]: 34.7 µM
SMILES: O=C1CCCC2=C1C(c1cc(Cl)c(OCc3ccc(C(=O)O)cc3)c(Cl)c1)C1=C(CCCC1=O)N2

IC50 [1]: 16 µM
SMILES: CC1(C)CC(=O)C2=C(C1)NC1=C(C(=O)CC(C)(C)C1)C2c1ccc(OCc2ccc(C(=O)O)cc2)c(Br)c1

inhibition [2]: > 70%
SMILES: COc1cc(CNC2CCCC2)ccc1OCC(=O)NC(C)(C)C

SMILES: O=C1CCCC2=C1C(c1ccc(OCc3cccc(F)c3)c(Br)c1)C1=C(CCCC1=O)N2
IC50 (MV4-11 [3]): > 100 µM | inhibition [26]: 26% | inhibition [16]: inactive

inhibition [2]: > 70%
SMILES: CN(C)CCOc1ccc(NC2Cc3ccccc3CSc3ccccc32)cc1 (stereo not drawn)

inhibition [2]: > 70% | IC50 [1]: 8.6 µM
SMILES: O=C(O)c1ccc(-c2nc3c4ccccc4c4ccccc4c3[nH]2)cc1

inhibition [2]: > 70% | IC50 [1]: 19 µM
SMILES: O=c1cc(O)c2sc3nc(-c4cccs4)cc(C(F)(F)F)c3c2[nH]1

inhibition [26]: 34%
SMILES: CC1=C(C#N)C(c2ccc(OCc3ccc(C(=O)O)cc3)cc2)C2=C(CCCC2=O)N1 (stereo not drawn)

inhibition [2]: > 70% | IC50 [1]: 2.9 µM
SMILES: COC(=O)c1cc(NC(=O)Cc2cccs2)cc(C(=O)OC)c1
